This note sets out measurements from patent US11058111B2, “Use of multiple charged cationic compounds derived from primary amines or polyamines for microbial fouling control in a water system” (ECOLAB USA INC., priority 2018, dated 2021).

The test system of experiment [1] is biofilm of a mixture of aerobic populations from more than 30 cooling systems in North America. Briefly: Biofilm growth inhibition test, similar to the MBEC assay; INT or crystal violet stain of biofilm on well walls. It is filed as cell-based. Details: key: “−” indicates no detectable growth at the end of test; “+” indicates detectable growth; “+/−” partial growth; “++” more growth. To be noted: 40-48 hours incubation at 32-35° C. An excerpt:
The microbial and biofilm inhibition test protocols used in this example is similar to the MBEC (Minimum Biofilm Eradication Concentration) assay and American Society for Testing and Materials (ASTM) MBEC-[…]-12 (2011) assay, both of which are commonly used. This test protocol can be used laboratory and field applications. The test protocol can be conducted in a 12-well or 96-well tissue culture plate format. The 12-well plate format is mainly for lab based and detailed screening/studies. The 96-well format is developed mainly for field applications. The test protocol starts with the preparation of the water sample to be tested by mixing the water from different water systems or artificial water with known bacterial populations with limited nutrient (16% of medium, 2% (w/w) casitone, 0.8% (w/w) yeast extracts, 4% (v/v) glycerol, 4 ppm FeCl3) and the solution of the treatment chemical. This step usually generates a series of the treated water samples with different concentrations for the treatment chemical(s) (from about 0.8 ppm to 1,000 ppm). Next, 200 μL of each treated water samples were transferred to a 96 well plate or 12 well plate. Usually, six replicates would be tested for each concentration of the treatment chemical(s) and controls with no treatment chemical and no bacterial were also placed in the plate(s). After the treated samples were properly plated, the plate(s) are placed on a slow rotary shaker in a humidity-controlled environment on at 32-35° C. for 40-48 hours of incubation. After this step, the bacterial cultures in the plate(s) were carefully poured out and 250 ul of dyes (350 ppm 2-(4-Iodophenyl)-3-(4-nitrophenyl)-5-phenyltetrazolium chloride (INT) or 2,000 ppm crystal violent (CV) for biofilm matrix stain) was added to each well for activity stain in biofilms on well walls. After 10-15 minutes, pour out the dye and gently wash the wells with deionized water until no colored water is running of the plate(s). After drying the plate(s), each well was inspected visually for staining and results are recorded. Alternatively, use 300 uL ethanol to extract CV dyes and transfer 200 uL of ethanol to a new plate for microtiter plate recording at 590 nm. […] The bacteria used in this example for microbial and/or biofilm growth inhibition test protocols comprised a mixture of aerobic populations from more than 30 cooling systems in North America. The specific species were not specifically identified. Those species were grown on […] agar.

Experiment [2] deals with mixture of aerobic populations from more than 30 cooling systems in North America. Kind of experiment: Bacterial growth inhibition test, similar to the MBEC assay; growth recorded visually or by turbidity at 650 nm. Details: key: “−” indicates no detectable growth at the end of test; “+” indicates detectable growth; “+/−” partial growth; “++” more growth. It counts as cell-based. Conditions: 40-48 hours incubation at 32-35° C. The text has this: The microbial and biofilm inhibition test protocols used in this example is similar to the MBEC (Minimum Biofilm Eradication Concentration) assay and American Society for Testing and Materials (ASTM) MBEC-[…]-12 (2011) assay, both of which are commonly used. This test protocol can be used laboratory and field applications. The test protocol can be conducted in a 12-well or 96-well tissue culture plate format. The 12-well plate format is mainly for lab based and detailed screening/studies. The 96-well format is developed mainly for field applications. The test protocol starts with the preparation of the water sample to be tested by mixing the water from different water systems or artificial water with known bacterial populations with limited nutrient (16% of medium, 2% (w/w) casitone, 0.8% (w/w) yeast extracts, 4% (v/v) glycerol, 4 ppm FeCl3) and the solution of the treatment chemical. This step usually generates a series of the treated water samples with different concentrations for the treatment chemical(s) (from about 0.8 ppm to 1,000 ppm). Next, 200 μL of each treated water samples were transferred to a 96 well plate or 12 well plate. Usually, six replicates would be tested for each concentration of the treatment chemical(s) and controls with no treatment chemical and no bacterial were also placed in the plate(s). After the treated samples were properly plated, the plate(s) are placed on a slow rotary shaker in a humidity-controlled environment on at 32-35° C. for 40-48 hours of incubation. After the incubation, the bacterial growth in each well of the plate was recorded either visually or by a microplate turbidity reader at 650 nm to determine the minimum bacterial growth inhibition concentration for a treatment chemical. The bacteria used in this example for microbial and/or biofilm growth inhibition test protocols comprised a mixture of aerobic populations from more than 30 cooling systems in North America. The specific species were not specifically identified. Those species were grown on […] agar.

On to `CCCCCCCCCCCCCCCCN(CCC(=O)NCCC[N+](C)(C)C)CCC(=O)NCCC[N+](C)(C)C.[Cl-].[Cl-]` [Compound 2, 3,3′-((3,3′-(hexadecylazanediyl)bis(propanoyl))bis(azanediyl))bis(N,N,N-trimethylpropan-1-aminium) chloride], for which the Biofilm growth entry in experiment [1] (test concentration 0.8 ppm) was “+”; in experiment [1] (test concentration 1.5 ppm), “+”; in experiment [1] (test concentration 3 ppm), “+”; in experiment [1] (test concentration 6 ppm) it was “+”; in experiment [1] (test concentration 12 ppm), “+”; in experiment [1] (test concentration 25 ppm), “+/−”. Also, the Biofilm growth result in experiment [1] (test concentration 50 ppm), in experiment [1] (test concentration 63 ppm), in experiment [1] (test concentration 125 ppm), in experiment [1] (test concentration 250 ppm), in experiment [1] (test concentration 500 ppm) and in experiment [1] (test concentration 1000 ppm) was “−” each time. For the same compound, the Bacterial growth result in experiment [2] (test concentration 0.8 ppm), in experiment [2] (test concentration 1.5 ppm), in experiment [2] (test concentration 3 ppm), in experiment [2] (test concentration 6 ppm), in experiment [2] (test concentration 12 ppm) and in experiment [2] (test concentration 25 ppm) was “+” throughout. Also, the Bacterial growth result is “+/−” in experiment [2] (test concentration 50 ppm); “−” in experiment [2] (test concentration 63 ppm); “−” in experiment [2] (test concentration 125 ppm); “−” in experiment [2] (test concentration 250 ppm); “−” in experiment [2] (test concentration 500 ppm); “−” in experiment [2] (test concentration 1000 ppm).

Regarding `CCCCCCCCC=CCCCCCCCCN(CCC(=O)NCCC[N+](C)(C)C)CCC(=O)NCCC[N+](C)(C)C.[Cl-].[Cl-]` [Compound 3, 3,3′-((3,3′-(octadec-9-en-1-ylazanediyl)bis(propanoyl))bis(azanediyl)) bis(N,N,N-trimethylpropan-1-aminium) chloride], the Biofilm growth entry in experiment [1] (test concentration 0.8 ppm) was “+”; in experiment [1] (test concentration 1.5 ppm) it was “+”; in experiment [1] (test concentration 3 ppm), “+”; in experiment [1] (test concentration 6 ppm) it was “+”; in experiment [1] (test concentration 12 ppm), “+/−”; in experiment [1] (test concentration 25 ppm), “+/−”. The Biofilm growth result in experiment [1] (test concentration 50 ppm) is “+/−”; in experiment [1] (test concentration 63 ppm) it was “−”; in experiment [1] (test concentration 125 ppm) it was “−”; in experiment [1] (test concentration 250 ppm), “−”; in experiment [1] (test concentration 500 ppm), “−”; in experiment [1] (test concentration 1000 ppm) it was “_”. Moreover, the Bacterial growth entry in experiment [2] (test concentration 0.8 ppm), in experiment [2] (test concentration 1.5 ppm), in experiment [2] (test concentration 3 ppm), in experiment [2] (test concentration 6 ppm), in experiment [2] (test concentration 12 ppm) and in experiment [2] (test concentration 25 ppm) was “+” each time. The Bacterial growth result in experiment [2] (test concentration 50 ppm) is on record as “+/−”; in experiment [2] (test concentration 63 ppm) it was “+/−”; in experiment [2] (test concentration 125 ppm), “−”; in experiment [2] (test concentration 250 ppm), “−”; in experiment [2] (test concentration 500 ppm) it was “−”; in experiment [2] (test concentration 1000 ppm), “−”.

In the case of “3,3′-((3,3′-(octylazanediyl)bis(propanoyl))bis(azanediyl))bis(N,N,N-trimethylpropan-1-aminium) chloride [Compound 4]”, the Biofilm growth result in experiment [1] (test concentration 0.8 ppm) was “+”; in experiment [1] (test concentration 1.5 ppm), “+”; in experiment [1] (test concentration 3 ppm) it was “+/−”; in experiment [1] (test concentration 6 ppm), “−”; in experiment [1] (test concentration 12 ppm), “−”; in experiment [1] (test concentration 25 ppm), “−”. Further, the Biofilm growth result in experiment [1] (test concentration 50 ppm), in experiment [1] (test concentration 63 ppm), in experiment [1] (test concentration 125 ppm), in experiment [1] (test concentration 250 ppm), in experiment [1] (test concentration 500 ppm) and in experiment [1] (test concentration 1000 ppm) was “−” each time. In addition, the Bacterial growth result in experiment [2] (test concentration 0.8 ppm) was “+”; in experiment [2] (test concentration 1.5 ppm) it was “+”; in experiment [2] (test concentration 3 ppm), “+”; in experiment [2] (test concentration 6 ppm) it was “++”; in experiment [2] (test concentration 12 ppm), “+/−”; in experiment [2] (test concentration 25 ppm), “−”. Also, the Bacterial growth entry in experiment [2] (test concentration 50 ppm), in experiment [2] (test concentration 63 ppm), in experiment [2] (test concentration 125 ppm), in experiment [2] (test concentration 250 ppm), in experiment [2] (test concentration 500 ppm) and in experiment [2] (test concentration 1000 ppm) was “−” each time.

On to `CCCCCCCCCCCCN(CCC(=O)NCCC[N+](C)(C)C)CCC(=O)NCCC[N+](C)(C)C.[Cl-].[Cl-]` [Compound 1, 3,3′-((3,3′-(dodecylazanediyl)bis(propanoyl))bis(azanediyl))bis(N,N,N-trimethylpropan-1-aminium) chloride], for which the Biofilm growth entry in experiment [1] (test concentration 0.8 ppm), in experiment [1] (test concentration 1.5 ppm), in experiment [1] (test concentration 3 ppm), in experiment [1] (test concentration 6 ppm), in experiment [1] (test concentration 12 ppm) and in experiment [1] (test concentration 25 ppm) was “+” in each case. For the same compound, the Biofilm growth result is “+” in experiment [1] (test concentration 50 ppm); “+” in experiment [1] (test concentration 63 ppm); “+” in experiment [1] (test concentration 125 ppm); “+/−” in experiment [1] (test concentration 250 ppm); “−” in experiment [1] (test concentration 500 ppm); “−” in experiment [1] (test concentration 1000 ppm). The Bacterial growth entry in experiment [2] (test concentration 0.8 ppm), in experiment [2] (test concentration 1.5 ppm), in experiment [2] (test concentration 3 ppm), in experiment [2] (test concentration 6 ppm), in experiment [2] (test concentration 12 ppm) and in experiment [2] (test concentration 25 ppm) was “+” throughout. The Bacterial growth entry in experiment [2] (test concentration 50 ppm) was “+”; in experiment [2] (test concentration 63 ppm), “+”; in experiment [2] (test concentration 125 ppm) it was “+”; in experiment [2] (test concentration 250 ppm), “+”; in experiment [2] (test concentration 500 ppm), “+”; in experiment [2] (test concentration 1000 ppm) it was “−”.
